Columns and labels:
[1] = tested on: NOD/Ltj mice; experiment: Cyclophosphamide induced type 1 diabetes in mice; assay type: in vivo, mouse; conditions: oral, once a day from day 0 until day 25; 3 and 10 mg/kg; FIG. 6
Experimental: Animals: Baseline blood glucose measurements were taken from 9-10 week old female NOD/Ltj mice (Jackson Laboratory, Bar Harbor, Me.) to ensure that they are normoglycemic (blood glucose is 80-120 mg/dL) prior to initiation of the experiment. Blood glucose was measured from tail bleeds using a One Touch Ultra® kit and test strips (LifeScan, Milpitas, Calif.).
Cyclophosphamide induction of Type 1 diabetes: On day 0 and day 14, normoglycemic NOD mice were injected intraperitoneally with 4 mg cyclophosphamide monohydrate (200 mg/kg) dissolved in 0.9% saline. If mice were diabetic (blood glucose is >250 mg/dL) they were not given a booster dose of cyclophosphamide on day 14.
Drug Treatment: Mice were dosed orally, with vehicle or test compound, once a day from day 0 until day 25. Compounds were suspended in 0.5% methyl cellulose vehicle using a sonicator to ensure uniform suspension. Mice were weighed twice weekly and were dosed according to weight. Dosing volume is 5 mL/kg. Test compound was dosed at 3 mg/kg and 10 mg/kg. Blood glucose was measured twice weekly. After dosing was completed at day 25, the mice continued to be monitored and blood glucose measurements were taken once a week for 3 weeks.

[2] = tested on: C57BL/6 mice; experiment: Mouse skin allograft survival; assay type: in vivo; conditions: oral, once a day; 1, 3 and 10 mg/kg; FIG. 5
Experimental: Animals: Female BALB/cJ mice (6 to 7 weeks of age at start of study) (Jackson Laboratory, Bar Harbor, Me.) were housed four per cage and maintained in a humidity—(40-60%) and temperature—(68-72° F.) controlled facility on a 12 hr:12 hr light/dark cycle (lights on at 6:30 am) with free access to food (Harlan Teklad, Orange, Calif., Rodent Diet 8604) and water. Female C57BL/6 mice (8 to 10 weeks of age at start of study) (Jackson Laboratory, Bar Harbor, Me.) were similarly housed and maintained. Mice were allowed one week of habituation to the animal facility before testing. […]
Clinical scoring: Skin allografts were inspected and digital images recorded daily until rejection, which was defined as the first day on which more than 80% of the graft is necrotic. […] In an optional related study, on posttransplantation day 5 isolated lymphocytes from peripheral lymph nodes and spleen were counted and characterized for activation markers (e.g., T-cell activation markers) by flow cytometry. Also on day 5, grafts were removed from transplanted recipients, cut into small fragments, digested with collagenase and sedimented over Ficoll-Paque (Pharmacia Biotech, Uppsala, Sweden) to isolate graft-infiltrating lymphocytes, which were counted and characterized for activation markers (e.g., T-cell activation markers) by flow cytometry. […]

[3] = tested on: Lewis rats; experiment: Collagen-induced arthritis in rats (ankle diameter); assay type: in vivo; conditions: rat, p.o., q.d., day 0 through day 16; 1, 3 and 10 mg/kg; FIG. 4
Experimental: Female Lewis rats were used in this study. Acclimated animals were anesthetized with isoflurane and given the first collagen injection (day 0). On day 6, they were anesthetized again for the second collagen injection. Collagen was prepared by making a 4 mg/mL solution in 0.01 N acetic acid. Equal volumes of collagen and incomplete Freund's adjuvant were emulsified by hand mixing until a bead of this material held its form when placed in water. Each animal received 300 μL of the mixture each time, spread over 3 subcutaneous sites on the back.
Treatment (p.o., q. d., 5 mL/kg dosing volume) began on day 0 and continued through day 16 with vehicle or compounds given at 24 h intervals. Rats were weighed on days 0, 3, 6 and 9 through 17 and caliper measurements of the ankles taken on days 9 through 17. The 2nd enantiomer of Compound 2 (isolated after resolution of compound 2 by HPLC, with a retention time of 14.9 min per the conditions reported in Example 1.25) was dosed at 1, 3 and 10 mg/kg.

[4] = tested on: C57BL/6 mice; experiment: MOG-induced EAE in mice; assay type: in vivo, mouse; conditions: oral, once a day from day 3 until day 21; 1, 3 and 10 mg/kg; FIG. 3
Experimental: Animals: Female C57BL/6 mice (8 to 10 weeks of age at start of study) (Jackson Laboratory, Bar Harbor, Me.) were housed four per cage and maintained in a humidity—(40-60%) and temperature—(68-72° F.) controlled facility on a 12 hr:12 hr light/dark cycle (lights on at 6:30 am) with free access to food (Harlan Teklad, Orange, Calif., Rodent Diet 8604) and water. Mice were allowed one week of habituation to the animal facility before testing.
Induction of EAE: Mice were immunized subcutaneously, 50 μL per hind flank, with a total of 100 μg MOG35-55 peptide emulsified 1:1 with Complete Freund's adjuvant containing 4 mg/mL heat-killed Mycobacterium tuberculosis. Mice also received 200 ng pertussis toxin intraperitoneally on the day of immunization and 48 hours later.
Clinical scoring: Severity of disease symptoms was scored as follows (in increasing order of severity): 0=normal; 1=limp tail OR hind limb weakness; 2=limp tail AND limb weakness/weakness of 2 or more limbs; 3=severe limb weakness or single limb paralysis; 4=paralysis of 2 or more limbs; 5=death.
Drug treatment: Mice were dosed orally, with vehicle or test compound, once a day from day 3 until day 21. Dosing volume is 5 mL/kg. […] Mice were monitored daily from day 7 onward for disease symptoms. After the last dose on day 21, disease progression was monitored daily for 2 more weeks.

`N#Cc1cc(OC(F)(F)F)cc(-c2nc(-c3ccc4c(c3)cc3n4CCC3CC(=O)O)no2)c1` (stereo not drawn) [2nd enantiomer of Compound 2, 2-(7-(5-(3-Cyano-5-(trifluoromethoxy)phenyl)-1,2,4-oxadiazol-3-yl)-2,3-dihydro-1H-pyrrolo[1,2-a]indol-1-yl)acetic Acid] was tested, and the “activity in the mouse type I diabetes assay (blood glucose vs vehicle)” value [1] was “exhibited activity in the mouse type I diabetes assay”, the “activity in the mouse skin allograft assay (time of rejection vs vehicle)” value [2] was “exhibited activity in the mouse skin allograft assay” and the “reduction of mean ankle diameter vs vehicle” value [3] was “exhibited activity for reducing mean ankle diameter”. For the same compound, the “activity in the mouse EAE assay (severity of disease symptoms vs vehicle)” value [4] was “exhibited activity in the mouse EAE assay”.

— patent US20100292233A1, “DIHYDRO-1H-PYRROLO[1,2-A]INDOL-1-YL CARBOXYLIC ACID DERIVATIVES WHICH ACT AS S1P1 AGONISTS” (ARENA PHARMACEUTICALS, INC., priority 2008, published 2010)
